Here are results for 28 compounds from US9315505B2, “Heterocyclic compounds and uses thereof” (INTELLIKINE LLC, priority 2009, dated 2016).

Some results are limits rather than exact numbers.

In test [1] the target is T1, PI3K δ (Homo sapiens, UniProt O00329).
T1 construct: purchased Upstate
Kind of test: In vitro IC50, PI3K δ (p110δ/p85α inhibition assay). Type of test: biochemical. Particulars: in vitro kinase assay; read-out: IC50(nM) PI3K δ. On the procedure:
(§1) IC50 values are measured using either a standard TLC assay for lipid kinase activity (described below) or a high-throughput membrane capture assay. Kinase reactions are performed by preparing a reaction mixture containing kinase, inhibitor (2% DMSO final concentration), buffer (25 mM HEPES, pH 7.4, 10 mM MgCl2), and freshly sonicated phosphatidylinositol (100 μg/ml). Reactions are initiated by the addition of ATP containing 10 μCi of γ-32P-ATP to a final concentration 10 or 100 μM and allowed to proceed for 5 minutes at room temperature. For TLC analysis, reactions are then terminated by the addition of 105 μl 1N HCl followed by 160 μl CHCl3:MeOH (1:1). The biphasic mixture is vortexed, briefly centrifuged, and the organic phase is transferred to a new tube using a gel loading pipette tip precoated with CHCl3. This extract is spotted on TLC plates and developed for 3-4 hours in a 65:35 solution of n-propanol:1M acetic acid. The TLC plates are then dried, exposed to a phosphorimager screen (Storm, Amersham), and quantitated.
(§2) Other commercial kits or systems for assaying PI3-K activities are available. The commercially available kits or systems can be used to screen for inhibitors and/or agonists of PI3-Ks including but not limited to PI 3-Kinase α, β, δ, and γ. An exemplary system is PI 3-Kinase (human) HTRF™ Assay from Upstate. […] Briefly, the assay is a time resolved FRET assay that indirectly measures PIP3 product formed by the activity of a PI3-K. The kinase reaction is performed in a microtitre plate (e.g., a 384 well microtitre plate). The total reaction volume is approximately 20 ul per well. In the first step, each well receives 2 ul of test compound in 20% dimethylsulphoxide resulting in a 2% DMSO final concentration. Next, approximately 14.5 ul of a kinase/PIP2 mixture (diluted in 1× reaction buffer) is added per well for a final concentration of 0.25-0.3 ug/ml kinase and 10 uM PIP2. The plate is sealed and incubated for 15 minutes at room temperature. To start the reaction, 3.5 ul of ATP (diluted in 1× reaction buffer) is added per well for a final concentration of 10 uM ATP. The plate is sealed and incubated for 1 hour at room temperature. The reaction is stopped by adding 5 ul of Stop Solution per well and then 5 ul of Detection Mix is added per well. The plate is sealed, incubated for 1 hour at room temperature, and then read on an appropriate plate reader. Data is analyzed and IC50s are generated using GraphPad Prism 5.

Test [2] deals with T2, PI3K γ (Homo sapiens, UniProt P48736).
T2 construct: purchased Sigma
The test can be described thus: In vitro IC50, PI3K γ (p110γ inhibition assay). Type of test: biochemical. The note with it: in vitro kinase assay. On the procedure: as §1, with “Class I PI3-Ks can be either purchased (p110α/p85α, p110β/p85α, p110δ/p85α from Upstate, and p110γ from Sigma) or expressed as previously described (Knight et al., 2004). IC50” for “IC50”, “quantitated. For each compound, kinase activity is measured at 10-12 inhibitor concentrations representing two-fold dilutions from the highest concentration tested (typically, 200 μM).” for “quantitated.”
as §2

In test [3] the target is T3, PI3K α (Homo sapiens, UniProt P42336).
T3 construct: purchased Upstate
Kind of test: In vitro IC50, PI3K α (p110α/p85α inhibition assay). Format: biochemical. Particulars: in vitro kinase assay; read-out: IC50(nM) PI3K α. On the procedure:
as §1, §2

Test [4] relates to Balb/c splenic B cells. Kind of test: B cell activation and proliferation assay (Alamar Blue). Format: cell-based. The note with it: Mus musculus, read-out: B cell proliferation EC50. Here is the method:
The ability of one or more subject compounds to inhibit B cell activation and proliferation is determined according to standard procedures known in the art. For example, an in vitro cellular proliferation assay is established that measures the metabolic activity of live cells. The assay is performed in a 96 well microtiter plate using Alamar Blue reduction. Balb/c splenic B cells are purified over a Ficoll-Paque™ PLUS gradient followed by magnetic cell separation using a MACS B cell Isolation Kit (Miletenyi). Cells are plated in 90 ul at 50,000 cells/well in B Cell Media (RPMI+10% FBS+Penn/Strep+50 uM bME+5 mM HEPES). A compound disclosed herein is diluted in B Cell Media and added in a 10 ul volume. Plates are incubated for 30 min at 37 C and 5% CO2 (0.2% DMSO final concentration). A 50 ul B cell stimulation cocktail is then added containing either 10 ug/ml LPS or 5 ug/ml F(ab′)2 Donkey anti-mouse IgM plus 2 ng/ml recombinant mouse IL4 in B Cell Media. Plates are incubated for 72 hours at 37° C. and 5% CO2. A volume of 15 uL of Alamar Blue reagent is added to each well and plates are incubated for 5 hours at 37 C and 5% CO2. Alamar Blue fluoresce is read at 560Ex/590Em, and IC50 or EC50 values are calculated using GraphPad Prism 5.
On the technique in general: Resazurin is reduced to fluorescent resorufin, in cell work by metabolically active cells.

T2 sequence (P48736 whole entry): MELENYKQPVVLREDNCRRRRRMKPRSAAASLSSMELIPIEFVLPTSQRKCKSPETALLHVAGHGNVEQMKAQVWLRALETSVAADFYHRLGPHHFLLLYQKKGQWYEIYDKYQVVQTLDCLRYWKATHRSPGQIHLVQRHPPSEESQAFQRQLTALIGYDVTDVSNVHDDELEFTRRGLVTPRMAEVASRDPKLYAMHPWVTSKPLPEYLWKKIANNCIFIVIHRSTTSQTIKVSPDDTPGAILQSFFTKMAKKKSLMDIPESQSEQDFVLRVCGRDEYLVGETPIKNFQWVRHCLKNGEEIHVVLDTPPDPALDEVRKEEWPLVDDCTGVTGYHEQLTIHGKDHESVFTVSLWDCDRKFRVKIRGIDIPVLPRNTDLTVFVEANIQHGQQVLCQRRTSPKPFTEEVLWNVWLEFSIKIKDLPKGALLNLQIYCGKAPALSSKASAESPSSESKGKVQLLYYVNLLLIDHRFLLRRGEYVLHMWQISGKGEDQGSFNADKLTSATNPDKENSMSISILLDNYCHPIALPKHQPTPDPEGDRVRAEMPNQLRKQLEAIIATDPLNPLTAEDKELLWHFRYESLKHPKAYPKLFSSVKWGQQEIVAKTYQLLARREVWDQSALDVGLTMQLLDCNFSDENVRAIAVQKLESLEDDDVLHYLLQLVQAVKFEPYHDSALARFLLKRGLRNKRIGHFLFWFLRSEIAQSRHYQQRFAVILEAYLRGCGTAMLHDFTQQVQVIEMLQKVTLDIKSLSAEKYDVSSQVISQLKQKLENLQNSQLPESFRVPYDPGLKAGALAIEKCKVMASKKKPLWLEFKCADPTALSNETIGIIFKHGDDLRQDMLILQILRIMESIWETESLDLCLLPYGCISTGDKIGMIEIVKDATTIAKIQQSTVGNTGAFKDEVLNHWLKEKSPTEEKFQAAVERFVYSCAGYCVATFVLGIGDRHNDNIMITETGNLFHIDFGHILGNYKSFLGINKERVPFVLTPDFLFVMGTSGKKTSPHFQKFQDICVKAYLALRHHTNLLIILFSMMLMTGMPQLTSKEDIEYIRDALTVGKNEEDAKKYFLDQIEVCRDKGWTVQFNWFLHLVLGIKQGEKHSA
T1 sequence (O00329 whole entry): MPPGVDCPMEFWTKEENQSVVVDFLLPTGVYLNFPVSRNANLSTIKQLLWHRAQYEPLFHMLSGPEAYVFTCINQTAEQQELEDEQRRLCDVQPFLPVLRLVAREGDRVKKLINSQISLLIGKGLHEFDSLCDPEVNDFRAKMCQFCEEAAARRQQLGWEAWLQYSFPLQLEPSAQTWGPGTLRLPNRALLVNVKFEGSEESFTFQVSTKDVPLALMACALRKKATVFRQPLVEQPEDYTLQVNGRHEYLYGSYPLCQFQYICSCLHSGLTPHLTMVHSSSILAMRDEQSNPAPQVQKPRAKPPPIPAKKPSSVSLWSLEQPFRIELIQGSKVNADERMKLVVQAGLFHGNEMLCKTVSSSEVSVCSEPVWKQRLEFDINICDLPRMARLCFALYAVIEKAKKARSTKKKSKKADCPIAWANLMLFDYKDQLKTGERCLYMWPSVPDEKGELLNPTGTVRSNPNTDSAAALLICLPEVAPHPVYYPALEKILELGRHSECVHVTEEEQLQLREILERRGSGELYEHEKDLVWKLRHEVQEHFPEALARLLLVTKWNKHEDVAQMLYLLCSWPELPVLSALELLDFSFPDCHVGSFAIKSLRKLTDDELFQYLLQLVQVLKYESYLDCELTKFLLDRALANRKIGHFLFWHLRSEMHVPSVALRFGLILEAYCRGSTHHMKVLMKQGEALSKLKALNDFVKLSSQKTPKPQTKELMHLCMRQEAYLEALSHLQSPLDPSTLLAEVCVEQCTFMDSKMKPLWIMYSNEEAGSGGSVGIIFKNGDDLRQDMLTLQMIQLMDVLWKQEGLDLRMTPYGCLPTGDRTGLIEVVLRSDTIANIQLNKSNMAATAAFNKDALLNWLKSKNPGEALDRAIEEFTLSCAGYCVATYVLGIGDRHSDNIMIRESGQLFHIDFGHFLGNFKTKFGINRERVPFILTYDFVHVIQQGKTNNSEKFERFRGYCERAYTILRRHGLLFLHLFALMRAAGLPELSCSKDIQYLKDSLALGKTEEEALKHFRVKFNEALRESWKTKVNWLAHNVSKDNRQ
T1 sequence (P27986 whole entry partner): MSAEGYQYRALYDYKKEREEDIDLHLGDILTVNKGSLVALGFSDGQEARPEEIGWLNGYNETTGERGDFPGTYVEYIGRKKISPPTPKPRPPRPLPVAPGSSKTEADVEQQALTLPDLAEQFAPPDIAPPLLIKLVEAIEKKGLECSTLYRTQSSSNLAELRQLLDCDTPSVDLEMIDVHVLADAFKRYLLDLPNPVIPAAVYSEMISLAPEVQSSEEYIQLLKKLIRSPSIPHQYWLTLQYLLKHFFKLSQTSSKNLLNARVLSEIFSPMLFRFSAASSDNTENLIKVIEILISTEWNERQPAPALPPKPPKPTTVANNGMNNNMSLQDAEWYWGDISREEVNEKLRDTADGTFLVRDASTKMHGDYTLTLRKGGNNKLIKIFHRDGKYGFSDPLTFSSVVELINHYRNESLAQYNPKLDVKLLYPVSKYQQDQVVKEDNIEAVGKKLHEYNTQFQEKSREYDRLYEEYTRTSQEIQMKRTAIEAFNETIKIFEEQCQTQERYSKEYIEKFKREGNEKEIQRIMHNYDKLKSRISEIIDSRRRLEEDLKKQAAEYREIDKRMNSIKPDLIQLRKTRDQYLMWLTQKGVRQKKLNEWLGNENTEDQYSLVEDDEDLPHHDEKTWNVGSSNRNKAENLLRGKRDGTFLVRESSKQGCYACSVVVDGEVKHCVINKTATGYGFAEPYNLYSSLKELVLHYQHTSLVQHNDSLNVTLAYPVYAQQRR
T3 sequence (P42336 whole entry): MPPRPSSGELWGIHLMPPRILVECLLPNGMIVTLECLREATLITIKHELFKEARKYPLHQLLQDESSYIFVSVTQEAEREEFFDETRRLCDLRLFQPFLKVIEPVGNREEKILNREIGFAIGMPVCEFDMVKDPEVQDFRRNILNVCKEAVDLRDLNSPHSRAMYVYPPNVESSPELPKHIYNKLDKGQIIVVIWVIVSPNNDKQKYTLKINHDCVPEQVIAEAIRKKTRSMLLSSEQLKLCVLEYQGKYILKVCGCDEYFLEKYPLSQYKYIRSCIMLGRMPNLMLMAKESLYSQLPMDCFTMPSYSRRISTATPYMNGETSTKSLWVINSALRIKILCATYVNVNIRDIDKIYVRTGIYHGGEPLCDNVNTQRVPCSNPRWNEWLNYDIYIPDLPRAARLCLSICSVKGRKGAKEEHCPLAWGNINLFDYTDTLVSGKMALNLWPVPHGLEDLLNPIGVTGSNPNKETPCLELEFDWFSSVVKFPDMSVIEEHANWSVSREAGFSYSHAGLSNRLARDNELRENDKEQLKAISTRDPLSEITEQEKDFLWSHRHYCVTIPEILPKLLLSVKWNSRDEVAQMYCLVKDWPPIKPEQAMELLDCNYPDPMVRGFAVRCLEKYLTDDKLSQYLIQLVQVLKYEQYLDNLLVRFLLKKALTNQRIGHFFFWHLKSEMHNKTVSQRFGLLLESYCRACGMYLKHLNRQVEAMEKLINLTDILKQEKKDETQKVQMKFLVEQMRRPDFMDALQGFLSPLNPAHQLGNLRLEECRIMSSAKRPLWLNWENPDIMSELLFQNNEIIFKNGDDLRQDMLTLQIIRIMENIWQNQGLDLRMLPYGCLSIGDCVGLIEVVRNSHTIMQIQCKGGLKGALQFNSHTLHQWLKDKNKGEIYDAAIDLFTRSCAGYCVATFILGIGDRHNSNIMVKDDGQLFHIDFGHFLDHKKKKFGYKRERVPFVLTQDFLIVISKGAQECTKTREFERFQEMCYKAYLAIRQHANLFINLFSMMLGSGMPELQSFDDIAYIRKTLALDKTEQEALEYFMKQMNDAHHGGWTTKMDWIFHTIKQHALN
T3 sequence (P27986 whole entry partner): as the sequence (P27986 whole entry partner) above

What is called IC50 is the point on the concentration scale where inhibition reaches its midpoint. For the compound `CCN1CCC(Oc2nc(Cn3nc(-c4cn[nH]c4)c4c(N)ncnc43)cc3cccc(C)c23)CC1` [Compound 7], the IC50 was under 100 nM in test [1], over 10000 nM in test [2] and under 10000 nM in test [3]. In test [4], the EC50 is under 0.1 µM.

For `C[C@H](Nc1ncnc2[nH]cnc12)c1cc2cccc(Cl)c2c(OCCN2CCOCC2)n1` [Compound 65], the IC50 in test [1] is under 100 nM; in test [2], under 1000 nM; in test [3] it was under 10000 nM. Moreover, the EC50 in test [4] was under 0.1 µM.

For `Cc1cccc2cc(C(C)Nc3ncnc4[nH]cnc34)nc(NCCN3CCOCC3)c12` (centres unmarked) [Compound 42], the values for the concentration for half-maximal inhibition (IC50) in test [1] and in test [2] were under 100 nM and over 10000 nM, respectively. Also, the EC50 in test [4] was under 1 µM.

As for `CCN1CCC(COc2nc(C(C)Nc3ncnc4[nH]cnc34)cc3cccc(C)c23)CC1` (centres unmarked) [Compound 46], the IC50 was under 100 nM in test [1] and over 10000 nM in test [2]. In addition, the EC50 in test [4] was under 0.1 µM.

As to `Cc1cccc2cc(Cn3nc(-c4cn[nH]c4)c4c(N)ncnc43)nc(N3CCOCC3)c12` [Compound 37], the results for the IC50 in test [1] and in test [2] were under 100 nM and under 10000 nM, respectively. Besides, the EC50 in test [4] was under 0.1 µM.

On to `CC(=O)N1CCN(c2nc(Cn3nc(-c4cn[nH]c4)c4c(N)ncnc43)cc3cccc(Cl)c23)CC1` [Compound 70], for which the results for the IC50 in test [1], in test [2] and in test [3] were under 100 nM, under 10000 nM and over 10000 nM, respectively.

In the case of `C[C@H](Nc1ncnc2[nH]cnc12)c1cc2cccc(Cl)c2c(N2CCN(S(C)(=O)=O)C[C@H]2C)n1` [Compound 86], the IC50 was under 1000 nM in test [1], under 1000 nM in test [2] and over 10000 nM in test [3].

In the case of `C[C@H](Nc1ncnc2[nH]cnc12)c1cc2ccccc2c(N2CCN(S(C)(=O)=O)CC2)n1` [Compound 77], the IC50 in test [1] is under 1000 nM; in test [2], over 10000 nM; in test [3] it was over 10000 nM.

Turning to `C[C@H](Nc1ncnc2[nH]cnc12)c1cc2cccc(Cl)c2c(OCC2CCN(C)CC2)n1` [Compound 73], the IC50 in test [1] was under 100 nM; in test [2], under 10000 nM; in test [3], under 10000 nM.

`C[C@H](Nc1ncnc2[nH]cnc12)c1cc2cccc(Cl)c2c(CCN2CCCC2)n1` [Compound 90]: the IC50 in test [1] was under 100 nM; in test [2], under 10000 nM; in test [3], under 10000 nM.

On to `CC(Nc1ncnc2[nH]cnc12)c1cc2cccc(Cl)c2c(CCN2CCCC2)n1` (centres unmarked) [Compound 79], for which the half-inhibitory concentration (IC50) in test [1] is under 100 nM; in test [2] it was under 10000 nM; in test [3], over 10000 nM.

For `Cc1cccc2cc(C(C)Nc3ncnc4[nH]cnc34)nc(CCN3CCCC3)c12` (centres unmarked) [Compound 39], the IC50 in test [1] was under 100 nM; in test [2] it was over 10000 nM. For the same compound, the EC50 in test [4] was under 0.1 µM.

For `C[C@H](Nc1ncnc2[nH]cnc12)c1nc(N2CCN(S(C)(=O)=O)CC2)c2c(Cl)cccc2n1` [Compound 94], the IC50 in test [1] is under 1000 nM; in test [2], under 10000 nM; in test [3], over 10000 nM.

As for `C[C@H](Nc1ncnc2[nH]cnc12)c1cc2cccc(Cl)c2c(CCN2CC(F)(F)C2)n1` [Compound 89], the results for the IC50 in test [1], in test [2] and in test [3] were under 100 nM, under 1000 nM and under 10000 nM, respectively.

For `CC(Nc1ncnc2[nH]cnc12)c1cc2ccccc2c(OC2CCN(C)CC2)n1` (centres unmarked) [Compound 23], the IC50 is under 1000 nM in test [1], over 10000 nM in test [2] and over 10000 nM in test [3].

Regarding `Cc1cccc2cc(Cn3nc(-c4ccc5oc(N)nc5c4)c4c(N)ncnc43)nc(N3CCOCC3)c12` [Compound 36], the IC50 in test [1] and in test [2] was under 100 nM each time. In addition, the EC50 in test [4] was under 1 µM.

As for `C[C@H](Nc1ncnc2[nH]cnc12)c1nc(N2CCCC2)c2c(Cl)cccc2n1` [Compound 92], the IC50 in test [1] is under 1000 nM; in test [2], over 10000 nM; in test [3] it was over 10000 nM.

On to `Cc1cccc2cc(C(C)Nc3ncnc4[nH]cnc34)nc(OCC3CCN(C)CC3)c12` (centres unmarked) [Compound 45], for which the IC50 in test [1] was under 100 nM; in test [2], over 10000 nM. Moreover, in test [4], the EC50 was under 0.1 µM.

As for `C[C@@H](Nc1ncnc2[nH]cnc12)c1cc2cccc(Cl)c2c(N2CCN(S(C)(=O)=O)CC2)n1` [Compound 83], the IC50 in test [1], in test [2] and in test [3] was over 10000 nM in each case.

Take `C[C@@H](Nc1ncnc2[nH]cnc12)c1cc2cccc(Cl)c2c(OC2CCN(S(C)(=O)=O)CC2)n1` [Compound 84]: the IC50 is under 1000 nM in test [1], over 10000 nM in test [2] and over 10000 nM in test [3].

For `Cc1cccc2cc(CN(C)c3ncnc4[nH]cnc34)nc(OC3CCN(C(C)C)CC3)c12` [Compound 12], the IC50 in test [1] was under 1000 nM; in test [2], over 10000 nM; in test [3], over 10000 nM.

Regarding `C[C@H](Nc1ncnc2[nH]cnc12)c1cc2cccc(Cl)c2c(N2CCN(S(C)(=O)=O)CC2)n1` [Compound 64], the figures for the IC50 in test [1], in test [2] and in test [3] were under 100 nM, under 1000 nM and under 10000 nM, respectively.

For the compound `C[C@H](Nc1ncnc2[nH]cnc12)c1cc2cccc(Cl)c2c(OCCN2CCN(S(C)(=O)=O)CC2)n1` [Compound 74], the IC50 in test [1] is under 100 nM; in test [2], under 10000 nM; in test [3], over 10000 nM.

In the case of `Cc1cccc2cc(C(C)Nc3ncnc4[nH]cnc34)nc(CCN3CCOCC3)c12` (centres unmarked) [Compound 38], the IC50 in test [1] is under 100 nM; in test [2], under 10000 nM. Besides, in test [4], the EC50 was under 0.1 µM.

In the case of `Cc1cccc2cc(C(C)Nc3ncnc4[nH]cnc34)nc(N3CCOCC3)c12` (centres unmarked) [Compound 44], the figures for the IC50 in test [1] and in test [2] were under 100 nM and under 10000 nM, respectively. Further, the EC50 in test [4] was under 1 µM.

For `C[C@H](Nc1ncnc2[nH]cnc12)c1nc(OCCN2CCCC2)c2c(Cl)cccc2n1` [Compound 95], the results for the IC50 in test [1], in test [2] and in test [3] were under 100 nM, under 10000 nM and under 10000 nM, respectively.

For the compound `CCN(Cc1cc2cccc(C)c2c(OC2CCN(C(C)C)CC2)n1)c1ncnc2[nH]cnc12` [Compound 11], the figures for the IC50 in test [1], in test [2] and in test [3] were under 10000 nM, over 10000 nM and over 10000 nM, respectively.

As for `Cc1cccc2cc(C(C)Nc3ncnc4[nH]cnc34)nc(OCC3CCN(C(C)C)CC3)c12` (centres unmarked) [Compound 51], the IC50 in test [1] was under 100 nM; in test [2], over 10000 nM; in test [3], under 10000 nM.
